One data set concerns conscious dogs. Put plainly: Dose escalation safety study, cardiovascular and respiratory parameters. The conditions noted are these: for cardiotoxicity, as evidenced by the electrocardiogram (ECG) / effect on blood pressure / effect on heart rate / Blood gases and blood chemistries (pH, pCO2, pO2, hematocrit, and lactate): acute intravenous, 3, 5 and 12 mg/kg; for Blood gases and blood chemistries (pH, pCO2, pO2, hematocrit, and lactate): all dose groups. The method, then: To establish the safety of eszopiclone, a dose escalation study was carried out. Cardiovascular and respiratory parameters were evaluated in conscious dogs following acute intravenous administration of (R)-, (S)- or racemic zopiclone at three doses (3, 5 and 12 mg/kg).

For data set [1], the system named is mice. Briefly: Antimuscarinic activity in vivo: oxotremorine induced salivation. The conditions noted are these: doses up to 300 mg/kg, p.o. The method, then:
(§1) Eszopiclone was evaluated for antimuscarinic activity in vivo.

Data set [2] has as its system mice. Put plainly: Antimuscarinic activity in vivo: mydriasis. The conditions noted are these: any dose tested, maximum dose 100 mg/kg, p.o. The method, then: as §1
Data set [3] deals with benzodiazepine receptor complex. The note with it: cited from earlier work.
The next data set relates to plasma proteins. The note with it: cited from earlier work.
For data set [4] the following is noted: in vivo; cited from earlier work.

Consider `CN1CCN(C(=O)O[C@@H]2c3nccnc3C(=O)N2c2ccc(Cl)cn2)CC1` [(R)-zopiclone], for which, in the data set on conscious dogs, the “cardiotoxicity, as evidenced by the electrocardiogram (ECG)” value is “No evidence of cardiotoxicity”; the “effect on blood pressure” value was “no effect”; the “effect on heart rate” value was “no effect”; the “Blood gases and blood chemistries (pH, pCO2, pO2, hematocrit, and lactate)” value is “remained unaffected”. In addition, in the data set on conscious dogs (intravenous, 12 mg/kg), the hemodynamic effect result is on record as “did not produce a consistent hemodynamic effect”. Besides, the “antagonism of oxotremorine induced salivation” value in the data set with mice [1] is given as “neither (R)-, (S)-, nor racemic zopiclone significantly antagonized oxotremorine induced salivation”.
With `CN1CCN(C(=O)OC2c3nccnc3C(=O)N2c2ccc(Cl)cn2)CC1` (racemic) [racemic zopiclone], in the data set on mice [2], the mydriasis result was “did not produce mydriasis”. For the same compound, the “binding to the benzodiazepine receptor complex” value in data set [3] was “binds to the benzodiazepine receptor complex, or to a site linked closely to this receptor complex”. In the data set with plasma proteins, the “binding to plasma proteins” value is “not highly bound”. Also, in data set [4], the “absorption from the stomach” value is listed as “well absorbed”. In the data set with conscious dogs, the “cardiotoxicity, as evidenced by the electrocardiogram (ECG)” value is listed as “No evidence of cardiotoxicity”; the “effect on blood pressure” value is recorded as “dose dependent, transient decreases in blood pressure”; the “effect on heart rate” value was “compensatory increase in heart rate”; the “Blood gases and blood chemistries (pH, pCO2, pO2, hematocrit, and lactate)” value is on record as “remained unaffected”. Also, the “antagonism of oxotremorine induced salivation” value with mice [1] was “neither (R)-, (S)-, nor racemic zopiclone significantly antagonized oxotremorine induced salivation”.

The record behind these values is US7465729B2, “Methods of treatment of menopause and perimenopause using eszopiclone” (Sepracor Inc., priority 2004, dated 2008).
